Measurements taken from the supplement of paper PMC10307832.

How the values were obtained:
Assay in all cases: relative viability (nuclei count vs DMSO), 5 days (fraction); higher = more cells survive
[1] = test system: SK-MES-1
Method in brief: (§1)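 A single step with final 0.05% Triton X-100, 1% formaldehyde and 1 ug/ml Hoechst fixed the cells and stained nuclei 5 days after treatment. Lung cancer cell lines in 1536-well plates had been treated by pin tool the day after seeding with one drug alone or a fixed anchor-drug dose plus five library-drug doses (not always all listed) in √10 steps, and nuclei were counted on 4× images. Relative viability is the ratio of nuclei in treated wells to nuclei in vehicle wells, taken as the median of duplicate plates.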

[2] = test system: H3255
Method in brief: as §1

[3] = test system: COR-L23
Method in brief: as §1

[4] = test system: HCC-44
Method in brief: as §1

[5] = test system: NCI-H1563
Method in brief: as §1

[6] = test system: NCI-H2087
Method in brief: as §1

[7] = test system: NCI-H1651
Method in brief: as §1

[8] = test system: LU99A
Method in brief: as §1

[9] = test system: EMC-BAC-2
Method in brief: as §1

[10] = test system: NCI-H838
Method in brief: as §1

[11] = test system: NCI-H2085
Method in brief: as §1

[12] = test system: NCI-H650
Method in brief: as §1

[13] = test system: HCC-827
Method in brief: as §1

[14] = test system: ChaGo-K-1
Method in brief: as §1

[15] = test system: NCI-H1944
Method in brief: as §1

[16] = test system: EPLC-272H
Method in brief: as §1

[17] = test system: NCI-H2405
Method in brief: as §1

[18] = test system: NCI-H2023
Method in brief: as §1

[19] = test system: NCI-H520
Method in brief: as §1

[20] = test system: NCI-H1793
Method in brief: as §1

[21] = test system: NCI-H1395
Method in brief: as §1

[22] = test system: LCLC-103H
Method in brief: as §1

COc1nc(C)cnc1NS(=O)(=O)c1cccnc1-c1ccc(-c2nnco2)cc1 [Zibotentan] + Nc1nc2[nH]cc(CCc3ccc(C(=O)N[C@@H](CCC(=O)O)C(=O)O)cc3)c2c(=O)[nH]1 [Pemetrexed] (partner 0.2 µM)
relative viability ([1]; first compound 0.08 µM): 0.953
relative viability ([1]; first compound 0.253 µM): 0.815
relative viability ([1]; first compound 0.8 µM): 0.827
relative viability ([1]; first compound 2.53 µM): 1.03
relative viability ([2]; first compound 0.08 µM): 0.635
relative viability ([2]; first compound 0.253 µM): 0.549
relative viability ([2]; first compound 0.8 µM): 0.575
relative viability ([2]; first compound 2.53 µM): 0.56
relative viability ([3]; first compound 0.08 µM): 0.214
relative viability ([3]; first compound 0.253 µM): 0.185
relative viability ([3]; first compound 0.8 µM): 0.207
relative viability ([3]; first compound 2.53 µM): 0.204
relative viability ([4]; first compound 0.08 µM): 0.629
relative viability ([4]; first compound 0.253 µM): 0.657
relative viability ([4]; first compound 0.8 µM): 0.589
relative viability ([4]; first compound 2.53 µM): 0.666
relative viability ([5]; first compound 0.08 µM): 0.827
relative viability ([5]; first compound 0.253 µM): 0.703
relative viability ([5]; first compound 0.8 µM): 0.757
relative viability ([5]; first compound 2.53 µM): 0.66
relative viability ([6]; first compound 0.08 µM): 0.677
relative viability ([6]; first compound 0.253 µM): 0.666
relative viability ([6]; first compound 0.8 µM): 0.536
relative viability ([6]; first compound 2.53 µM): 0.746
relative viability ([7]; first compound 0.08 µM): 0.594
relative viability ([7]; first compound 0.253 µM): 0.581
relative viability ([7]; first compound 0.8 µM): 0.578
relative viability ([7]; first compound 2.53 µM): 0.539
relative viability ([8]; first compound 0.08 µM): 0.169
relative viability ([8]; first compound 0.253 µM): 0.177
relative viability ([8]; first compound 0.8 µM): 0.14
relative viability ([8]; first compound 2.53 µM): 0.198
relative viability ([9]; first compound 0.08 µM): 0.457
relative viability ([9]; first compound 0.8 µM): 0.406
relative viability ([9]; first compound 2.53 µM): 0.44
relative viability ([10]; first compound 0.08 µM): 0.249
relative viability ([10]; first compound 0.253 µM): 0.234
relative viability ([10]; first compound 0.8 µM): 0.23
relative viability ([10]; first compound 2.53 µM): 0.252
relative viability ([11]; first compound 0.08 µM): 0.884
relative viability ([11]; first compound 0.253 µM): 0.852
relative viability ([11]; first compound 0.8 µM): 0.892
relative viability ([11]; first compound 2.53 µM): 0.918
relative viability ([12]; first compound 0.08 µM): 0.947
relative viability ([12]; first compound 0.253 µM): 0.927
relative viability ([12]; first compound 0.8 µM): 0.905
relative viability ([12]; first compound 2.53 µM): 0.977
relative viability ([13]; first compound 0.08 µM): 0.262
relative viability ([13]; first compound 0.253 µM): 0.272
relative viability ([13]; first compound 0.8 µM): 0.241
relative viability ([13]; first compound 2.53 µM): 0.294
relative viability ([14]; first compound 0.08 µM): 0.261
relative viability ([14]; first compound 0.253 µM): 0.258
relative viability ([14]; first compound 0.8 µM): 0.275
relative viability ([14]; first compound 2.53 µM): 0.351
relative viability ([15]; first compound 0.08 µM): 0.769
relative viability ([15]; first compound 0.253 µM): 0.584
relative viability ([15]; first compound 0.8 µM): 0.61
relative viability ([15]; first compound 2.53 µM): 0.732
relative viability ([16]; first compound 0.253 µM): 0.319
relative viability ([16]; first compound 0.8 µM): 0.309
relative viability ([16]; first compound 2.53 µM): 0.405
relative viability ([17]; first compound 0.08 µM): 1.15
relative viability ([17]; first compound 0.253 µM): 0.975
relative viability ([17]; first compound 0.8 µM): 1.06
relative viability ([17]; first compound 2.53 µM): 1.21
relative viability ([18]; first compound 0.08 µM): 0.243
relative viability ([18]; first compound 0.8 µM): 0.225
relative viability ([18]; first compound 2.53 µM): 0.251
relative viability ([19]; first compound 0.08 µM): 0.626
relative viability ([19]; first compound 0.253 µM): 0.665
relative viability ([19]; first compound 0.8 µM): 0.682
relative viability ([19]; first compound 2.53 µM): 0.695
relative viability ([20]; first compound 0.08 µM): 0.942
relative viability ([20]; first compound 0.253 µM): 0.785
relative viability ([20]; first compound 0.8 µM): 0.799
relative viability ([20]; first compound 2.53 µM): 1.08
relative viability ([21]; first compound 0.08 µM): 1.01
relative viability ([21]; first compound 0.253 µM): 0.801
relative viability ([21]; first compound 0.8 µM): 0.81
relative viability ([21]; first compound 2.53 µM): 0.901
relative viability ([22]; first compound 0.08 µM): 0.428
relative viability ([22]; first compound 0.253 µM): 0.471
relative viability ([22]; first compound 0.8 µM): 0.429
relative viability ([22]; first compound 2.53 µM): 0.533
